Measured values reported in US10183010B2, “2-oxo-1,2-dihydrobenzo[cd]indole compound and use thereof” (Guangzhou Institutes of Biomedicine and Health, Chinese …, priority 2015, dated 2019).

Assays:
[1] = biological target: T1, BRD4(1) protein (Homo sapiens, UniProt O60885); experiment: TSA assay: thermodynamic stability of BRD4(1); format: binding; settings: SYPRO Orange, 30° C. to 80° C.
T1 construct: BRD4(1) protein, 500 nM; inferred from the use of nickel acceptor beads
Procedure, shortened: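 Thermal shift of BRD4(1) protein (100 μM stock) with compound (400 μM stock) in MOPS 50 mM/NaCl 150 mM/10% glycerol, pH 7.5, SYPRO Orange 1:1000, pre-incubated on ice 30 min, DMSO <2%. Melting ramp 30–80 °C at 0.5 °C/min with fluorescence read every 0.5 °C; ΔTm reported.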

[2] = biological target: T1, BRD4(1) protein; experiment: AlphaScreen assay: disruption of the interaction of BRD4(1) and biotinylated acetylated peptide; format: binding; settings: BRD4(1) protein with H4KAc4-biotin peptide, 20° C.
Procedure, shortened: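 BRD4(1) at 500 nM was incubated with biotinylated tetra-acetylated H4 peptide (50 nM) in MOPS/CHAPS/NaF/BSA buffer, pH 7.4, with streptavidin donor and nickel acceptor beads (50 μg/mL each). Incubation ran 1 h at 20 °C in the dark before AlphaScreen signal read-out.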

`CCN1C(=O)c2cccc3c(S(=O)(=O)Nc4cccc(C(C)=O)c4)ccc1c23` [Example 119, N-(3-acetylphenyl)-1-ethyl-2-oxo-1,2-dihydrobenzo[cd]indole-6-sulfonamide] was tested, and the “TSA ΔTm” value [1] was 3 °C and the IC50 [2] was 5500 nM.
`CCN1C(=O)c2cccc3c(S(=O)(=O)Nc4ccc(Cl)cc4)ccc1c23` [Example 120, N-(4-chlorophenyl)-1-ethyl-2-oxo-1,2-dihydrobenzo[cd]indole-6-sulfonamide] was tested, and the “TSA ΔTm” value [1] was 3.3 °C and the IC50 [2] was 3380 nM.
For `CCN1C(=O)c2cccc3c(S(=O)(=O)Nc4ccccc4)ccc1c23` [Example 121, 1-ethyl-2-oxo-N-phenyl-1,2-dihydrobenzo[cd]indole-6-sulfonamide], the “TSA ΔTm” value [1] was 7.5 °C and the IC50 [2] was 1090 nM.
In the case of `CCN1C(=O)c2cccc3c(S(=O)(=O)Nc4ccccc4Cl)ccc1c23` [Example 122, N-(2-chlorophenyl)-1-ethyl-2-oxo-1,2-dihydrobenzo[cd]indole-6-sulfonamide], the “TSA ΔTm” value [1] is reported as 5.1 °C and the IC50 [2] is reported as 1890 nM.
`CCN1C(=O)c2cccc3c(S(=O)(=O)Nc4cccc(Cl)c4)ccc1c23` [Example 123, N-(3-chlorophenyl)-1-ethyl-2-oxo-1,2-dihydrobenzo[cd]indole-6-sulfonamide] was tested, and the “TSA ΔTm” value [1] was 3.3 °C and the IC50 [2] was 3520 nM.
(+)-JQ1 [reference compound] was tested, and the “TSA ΔTm” value [1] was 11.5 °C and the IC50 [2] was 180 nM.
